From US9456589B2, “Elasmobranch-repelling compounds and methods of use” (priority 2005, dated 2016)
Where two headings read alike, the source gives them in different places.

What was measured:
[1] = tested on: lemon sharks; test: Tonic immobility, Micropipette Assay; format: in vivo, N. brevirostris; details: juvenile lemon shark, micropipette
Description: (§1) One bioassay used to observe and measure flight response is the tonic immobility test. Tonic immobility is a state of paralysis that typically occurs when a shark is subject to inversion of its body along the longitudinal axis. This state is called “tonic,” and the shark can remain in this state for up to 15 minutes thereby allowing researchers to observe effects of chemical repellents. The “tonic” state of the shark is first established by releasing seawater in proximity to the “tonic” shark with the same delivery instrument and at the same distance as a “test” repellent compound will be released. Some controls are released with a high flow rate (30 mL/sec) in order to establish that sharks are not awakened by a jet of fluid over their noses. Once behavioral controls are established, a compound or composition that may have a repelling effect is delivered to the shark. If the compound or composition engenders a flight response, the shark will awaken from the tonic state and rapidly attempt to flee the delivered repellent. Using this tonic immobility bioassay researches can quantify the strength of a repellent effect.
(§2) A fourth method of delivery was called the “Micropipette Assay” method of delivery. In this method, a very small dose (fraction of a mL) of a test substance was delivered directly into a shark's mouth. […] A response, such as a cough or other notable action of the shark, was usually noted when effective gustatory repellents were delivered directly into a shark's mouth while in tonic immobility.
(§3) The Micropipette Assay method has not proven to be a particularly effective method of assaying for a flight response in elasmobranchs. The Micropipette Assay method is, nevertheless, an excellent method for specifying that a gustatory response has occurred. It is effective for specifying a gustatory response because the micropipette delivery method allows direct delivery of an entire bolus of test substance into the mouth of the shark being tested.
Using a microliter syringe or microliter pipette, a bolus of test chemical can be directed precisely into one of the shark's nares, or its mouth. […] Olfactory repellents will terminate tonic immobility almost immediately when injected into a nare of the shark.
(§4) Lemon, nurse, blacktip and tiger sharks were placed in tonic immobility by inverting the shark's body along its longitudinal axis. […] The “tonic” state of each shark was first established by releasing a control of seawater in proximity to the shark with the same delivery instrument and at the same distance as the chemical repellent would later be delivered. In certain controls, sea water was released with a high flow rate (30 mL/sec) in order to establish that the sharks would not be awakened by a jet of fluid over their noses.
(§5) Once behavioral controls were established, the chemical repellent was delivered to the shark using the Hd Syringe Assay method, the Syringe 3/5/10 Assay method, the Bite Assay method or the Micropipette Assay method. […] If tonic immobility was terminated, the positive response was denoted as “Y.” If tonic immobility was not terminated but a behavior change within tonic immobility was noted, such as the opening of the mouth or a cough, the response was denoted as an “R” for reduced response. If no behavior change was observed, the negative response was denoted “N.”
Further because the Micropipette assays were often done serially on the same set of sharks, second and third doses of the repellent over time would be expected to evoke less of a reaction. Nevertheless, the small doses delivered to the shark in the Micropipette assay provide important data on whether a compound is a gustatory stimulant because the small dose may be delivered directly into the mouth of the shark. This eliminates any olfactory response that might be acting in concert with a gustatory response to terminate tonic immobility.

[2] = tested on: nurse sharks; test: Tonic immobility, Micropipette Assay; format: in vivo, C. cirratum
Description: as §1, §2
as §3, with “tested. […]” for “tested.”

[3] = tested on: juvenile lemon and nurse sharks; test: Tonic immobility, Micropipette Assay, summary over species; format: in vivo; details: for Micropipette Y (termination of tonic immobility), trials of trials: juvenile lemon and nurse sharks, oral dose
Description: as §1, §2, §3
An oral dose of no more than 400 microliters was then delivered by micropipette into the mouth of a juvenile nurse shark. Tonic immobility was terminated. For each derivative of butyric acid and each naturally occurring acid listed in Table 9, a first micropipette assay was performed on a juvenile lemon shark with no more than 100 microliters of test acid in an oral dose. A second micropipette assay was then performed on a juvenile nurse shark with no more than 400 microliters of test acid in an oral dose. In each test, tonic immobility was terminated.
In a first set of studies on the effectiveness of carboxylic acids as elasmobranch repellents, each tested substance was subjected to the following protocol. […] An oral dose of no more than 400 microliters was then delivered by micropipette into the mouth of a juvenile nurse shark. Tonic immobility was terminated. […] The data evidences the gustatory repelling activity of carboxylic acids.

[4] = tested on: lemon sharks; test: Tonic immobility, Hd Syringe Assay; format: in vivo, N. brevirostris; details: lemon sharks
Description: as §1, §4
Once behavioral controls were established, the chemical repellent was delivered to the shark using the Hd Syringe Assay method, the Syringe 3/5/10 Assay method, the Bite Assay method or the Micropipette Assay method. […]

[5] = tested on: nurse sharks; test: Tonic immobility, Hd Syringe Assay; format: in vivo, C. cirratum; details: juvenile nurse shark
Description: as §1
Lemon, nurse, blacktip and tiger sharks were placed in tonic immobility by inverting the shark's body along its longitudinal axis. […]

[6] = tested on: blacktip sharks; test: Tonic immobility, Syringe 3/5/10 Assay; format: in vivo, C. limbatus
Description: as §1
(§6) In the tonic immobility studies disclosed herein, several different methods were employed for delivery of repelling compounds. A first method for delivery of chemical repellent in tonic immobility studies employed a “Syringe 3/5/10 Assay” method. The “Syringe 3/5/10 Assay” method is so named because a test repellent is delivered to a shark from a distance of about “3” inches with a bolus of about “5” mL with a response to the test repellent considered positive if the shark reacts with a change in behavior within less than about “10” seconds from the time of delivery.
(§7) The “3/5/10 Syringe Assay” as employed herein delivered a dose of 5-6 mL of a test chemical repellent from a syringe fixed with a needle having a gauge of about 22 from a distance at least 3 inches in front of a shark. Because the test chemical repellent was delivered at a distance from the shark's nares and mouth, a cloud of test chemical repellent was dispersed over the shark within the water column. The dispersed test repellent was subject to water current direction, dispersion and dilution. As a result, a flight response within 10 seconds was considered a positive repellency response. […] Time from delivery to response is related to the size of the bolus delivered from the syringe, distance of the shark from the syringe and water current.
as §4, §5
In Syringe 3/5/10 Assays, 5-6 mL of 3-methylbutanal was delivered at least 3 inches in front of the shark's mouth. A cloud of the repellent dispersed over the shark within the water column. […] As noted above, because the dispersion of the chemical repellent upon delivery is affected by volume of repellent, water current, and other factors, the time between delivery and response was not correlatable with the potency of the repellent. […]

[7] = tested on: sharks (lemon, nurse, tiger pooled); test: Tonic immobility, Hd Syringe Assay, summary over species; format: in vivo; details: species pooled
Description: as §1
In Hd-Syringe Assays, the 3-methylbutanal was delivered to the shark's mouth and nares using a 3 mL hypodermic syringe fitted with a 22 gauge needle. The needle was held within 3 inches of the shark's mouth and the test repellent was slowly released from the syringe with a very fine plume in the water column. Any response was denoted. If a response occurred during a measurable time after delivery of the test chemical, the time between delivery and response was noted. If a response occurred immediately or the response occurred before a measurable time could be established, no time to response was noted.

[8] = tested on: nurse sharks; test: Tonic immobility, Syringe 3/5/10 Assay; format: in vivo, C. cirratum; details: Table 24; nurse shark; syringe 3/5/10 delivery; 6 ml; mouth
[9] = tested on: sharks (lemon, nurse, blacktip, tiger, blacknose pooled); test: Tonic immobility, Syringe 3/5/10 Assay, summary over species; format: in vivo
Description: as §1, §6, §7
In Syringe 3/5/10 Assays, 5-6 mL of 3-methylbutanal was delivered at least 3 inches in front of the shark's mouth. A cloud of the repellent dispersed over the shark within the water column. […] As noted above, because the dispersion of the chemical repellent upon delivery is affected by volume of repellent, water current, and other factors, the time between delivery and response was not correlatable with the potency of the repellent.

[10] = tested on: Caribbean reef sharks; test: Cloud dispersion assay (cloud - co2); format: in vivo, C. perezii; details: for Comments (effect on shark population): cloud, 500 mL
Source text: Another bioassay used to observe a flight response in sharks is a cloud dispersion assay on competitively feeding population of sharks. This assay is referred to as a “Cloud Dispersion Assay” or “Cloud Assay.” A pressurized fluid delivery system was designed to deliver repellent into large feeding populations of sharks. The repellent is released as a subsurface cloud, which follows the current. A 1 L plastic container containing the test chemical repellent solution is pressurized to approximately 20 psig with a battery compressor or hand pump. A globe valve is used to hold back the fluid. The fluid is delivered to the end of a long PVC pole using a Teflon tubing. This allows the operator to place the tip of the pole well into a population of feeding sharks. By actuating the small globe valve, a cloud of the chemical solution is released quickly and reliably into the feeding population. Controls are established using FD&C Red 40 dye and seawater, uncolored seawater, and air. These controls establish that sharks are not afraid to approach the delivery pole, nor are sharks deterred from feeding by the jet of control fluid or air.
Syringe 3/5/10, Hd Syringe and Micropipette assays were carried out as described in Examples 1 and 2.

[11] = tested on: juvenile sharks; test: Initial tonic immobility assays, mouth delivery by micropipette or syringe; format: in vivo; details: introduced to the mouth using a micropipette or syringe
[12] = listed as crotonic acid solution

## CCCC(=O)O [n-Butyric Acid, n-butyric acid]
[1]
  oral dose that terminated tonic immobility: no more than 100 microliters
[2]; juvenile nurse shark, micropipette
  oral dose that terminated tonic immobility: no more than 400 microliters
[3]
  Micropipette Y (termination of tonic immobility), trials of trials: 2/2
[3]; listed as butyric acid
  Micropipette Y (termination of tonic immobility), trials of trials: termination of tonic immobility
[3]; juvenile lemon or nurse sharks
  mouth dose at which tonic immobility was terminated: 100 µL

## Cc1c(N)c(=O)n(-c2ccccc2)n1C [4-aminoantipyrine]
[4]
  Hd Syringe assays terminating tonic immobility: all assays terminated tonic immobility
[5]
  Hd Syringe assays terminating tonic immobility: terminated
[6]; blacktip sharks
  Syringe 3/5/10 assays with no response: no response
[7]
  Hd-Syringe Y (termination of tonic immobility), trials of trials: terminated tonic immobility in all tests
[7]; listed as 4-amino-antipyrine
  Hd-Syringe Y (termination of tonic immobility), trials of trials: five of five
[7]; listed as 4-amino-antipyrine (metapirazone)
  Hd-Syringe Y (termination of tonic immobility), trials of trials: 5/5

## O=C(O)CC(O)(CC(=O)O)C(=O)O [Citric acid 50% w/w, Citric acid]
[4]
  Hd Syringe assays terminating tonic immobility: four of four
[8]
  T? (termination of tonic immobility): R
[6]; Table 24, blacktip shark, syringe 3/5/10 delivery, 6 ml, mouth longline
  T? (termination of tonic immobility): Y
[7]
  Hd-Syringe Y (termination of tonic immobility), trials of trials: 4/4
[3]
  Micropipette Y (termination of tonic immobility), trials of trials: 2/2

## CC=CC(=O)O [crotonic acid solution (2-butenoic acid), 2-butenoic acid]
[8]
  T? (termination of tonic immobility): Y and R
[9]
  Syringe 3/5/10 N (no response), trials of trials: 2/7
  Syringe 3/5/10 R (behavior response within tonic immobility), trials of trials: 1/7
  Syringe 3/5/10 Y (termination of tonic immobility), trials of trials: 4/7
[9]; [12]
  Syringe 3/5/10 N (no response), trials of trials: two of the seven
  Syringe 3/5/10 R (behavior response within tonic immobility), trials of trials: one of the seven
  Syringe 3/5/10 Y (termination of tonic immobility), trials of trials: four of the seven
[3]
  Micropipette Y (termination of tonic immobility), trials of trials: 2/2
[3]; lemon and nurse sharks
  screening result: shark repelling compounds

## Cc1cccnc1N [2-amino-3-picoline]
[10]; cloud - co2, 500 mL
  T?: Y
[10]
  Comments (effect on shark population): population decreased
[10]; listed as 2-amino-3-picoline 95% cut to 10% w/w with desalinated water
  Comments (effect on shark population): population decrease

## c1ccncc1 [Pyridine, pyridine]
[2]; nurse shark, about 500 microliters into the mouth
  Micropipette assay outcome: did not evoke a response
[9]
  Syringe 3/5/10 R (behavior response within tonic immobility), trials of trials: 1/4
  Syringe 3/5/10 Y (termination of tonic immobility), trials of trials: 3/4
[9]; listed as pyridine
  Syringe 3/5/10 R (behavior response within tonic immobility), trials of trials: one of four
  Syringe 3/5/10 Y (termination of tonic immobility), trials of trials: three of four
[11]
  result of initial tonic immobility assays: terminated tonic immobility
